Test [1] has as its system L1210. The test can be described thus: Apparent inhibition of incorporation of labeled thymidine into DNA in murine leukemia L1210 cell;No inhibition. The class given is functional, cell-based. Particulars: Mus musculus.
For a further test, the system named is Human alphaherpesvirus 2. The test can be described thus: Antiviral activity against herpes simplex virus 2 (HSV 2); Inactive. The class given is functional, organism-based.
The subject of a further test is Human alphaherpesvirus 1. The test can be described thus: Antiviral activity against herpes simplex virus-1 (HSV 1); Inactive. Type of test: functional, organism-based.
The test system of test [2] is L1210. Put plainly: Percent inhibition of growth of murine leukemia L1210 cell culture at 1 mM was determined. Type of test: functional. Particulars: Mus musculus.
Test [3] concerns Vesicular stomatitis virus. Put plainly: Antiviral activity against vesicular stomatis virus (VSV); Inactive. The class given is functional, organism-based.

Each structure is given as a SMILES string. Active and inactive are the calls of the source. No cut-off for these calls is given here.

The inhibition is the share of the control response that was lost under treatment. High values mean a response far below the control, low ones a response near the control.

On to `Nc1ccn([C@@H]2O[C@H](CO)[C@@H](O)[C@@H]2O)c(=O)n1`, for which, in the test with L1210 [1], the outcome was inactive.
In the case of `Nc1nc(O)c2ncn([C@@H]3C=C(CO)[C@@H](O)[C@H]3O)c2n1`, the result (in the test on Human alphaherpesvirus 2; in the test with Human alphaherpesvirus 1; in test [3]) was inactive. Besides, in the test with L1210 [2], the inhibition at 1000 µM came to 50%.
Regarding `Nc1ncnc2c1ncn2[C@@H]1C=C(CO)[C@@H](O)[C@H]1O` [NEOPLANOCIN A], the result (with Human alphaherpesvirus 2; in the test with Human alphaherpesvirus 1; in test [3]) was inactive. In addition, in the test with L1210 [2], the inhibition at 1000 µM came to 50%.

The record behind these values is ChEMBL document CHEMBL1123684, “Synthesis and biological properties of 9-(trans-4-hydroxy-2-buten-1-yl)adenine and guanine: open-chain analogues of neplanocin A” (1987).
